Legend:
Format in all cases: cell-based, human
albumin = experiment: Albumin expression by real-time quantitative PCR (Example 4); conditions: 1 mM in HSM, 7 days culture, control ReproFF
Protocol: (§1) 201B7 cells, ReproFF, HSM, calcium lactate, and sodium lactate were prepared in the same manner as in Example 2.
(§2) The 201B7 cells were seeded to a 6-well plate coated with Matrigel, and when 100% confluence had been reached, the medium was exchanged with 1 mM calcium lactate (Ca-lactate), 1 mM sodium lactate (Na-lactate), or 1 mM lactic acid (Lactate), followed by culture for 7 days. Control cells were cultured in ReproFF.
(§3) RNA was extracted and analyzed for the expression levels of AFP and albumin by real-time quantitative PCR.

201B7 cells [1] = experiment: Optical microscope observation 1: precipitates and cell survival after 7-day culture (Example 3)
Protocol: In the above-mentioned Examples, precipitates were formed in culture dishes in some cases. The formation of the precipitates inhibits contact between cells and medium to adversely affect long-term survival. Therefore, conditions under which the precipitates were not formed were investigated.
201B7 cells, ReproFF, HSM, and calcium lactate were prepared in the same manner as in Example 2.
5×10^4 201B7 cells were seeded to a 96-well plate coated with Matrigel. The next day, to HSM, calcium lactate was added at 3 μM, 10 μM, 30 μM, 100 μM, 300 μM, 1 mM, 3 mM, 10 mM, 30 mM, or 100 mM, followed by culture for 7 days.

AFP [2] = experiment: AFP expression by real-time quantitative PCR (Example 4); conditions: 1 mM in HSM, 7 days culture, control ReproFF
Protocol: as §1, §2, §3

201B7 cells [3] = experiment: Optical microscope observation 2: state of culture cells (Example 5); conditions: 1 mM, 7 days culture
Protocol: 201B7 cells, HSM, calcium lactate, sodium lactate, and lactic acid were prepared in the same manner as in Example 2.
The 201B7 cells were seeded to a 6-well plate coated with Matrigel, and when 100% confluence had been reached, the medium was exchanged with 1 mM calcium lactate, 1 mM sodium lactate, or 1 mM lactic acid, followed by culture for 7 days.

AFP [4] = experiment: Immunostaining with anti-AFP antibody (Example 6); conditions: HSM supplemented, 7 days culture
Protocol: 201B7 cells, HSM, ReproFF, and calcium lactate were prepared in the same manner as in Example 2.
The 201B7 cells were seeded to an 8-well chamber slide and cultured. After 100% confluence had been reached, 1 mM calcium lactate was added to HSM, followed by culture for 7 days. As a control, the cells were cultured in ReproFF for 7 days.
The cells were fixed with 4% paraformaldehyde, and washed with phosphate buffered saline (PBS). The cells were incubated at 4° C. for 30 minutes in 100% methanol having added thereto 0.3% hydrogen peroxide solution to inactivate intrinsic peroxidase. The cells were washed three times with PBS. The cells were incubated at 4° C. for 30 minutes in PBS supplemented with 2% fetal bovine serum (wash buffer).
A mouse anti-human alpha-fetoprotein (AFP) antibody (manufactured by Takara Bio Inc., product code: M225) was diluted 1,000-fold with the wash buffer and added, followed by incubation at 4° C. overnight. The resultant was washed three times with PBS. An anti-mouse IgG antibody (manufactured by GE Healthcare) labeled with Horse-radish peroxidase was diluted 1,000-fold with the wash buffer, followed by incubation at 4° C. for 3 hours. The resultant was washed three times with PBS. Color development was performed with 3,3-diaminobenzidine (DAKO, K3467), and nuclei were stained with hematoxylin, followed by mounting.

[5] = in HSM, 7 days culture, optical microscope

Compound	expression of albumin as compared to the undifferentiated state (albumin)	cell survival (201B7 cells [1]; 1 mM in HSM, 7 days culture)	concentration at which precipitates were found (201B7 cells [1]; [5]) [µM]	concentration at which precipitates were not found (201B7 cells [1]; [5]) [µM]	expression of AFP as compared to the undifferentiated state (AFP [2])	state of cells as compared to cells cultured with calcium lactate (201B7 cells [3])	cell survival in HSM supplemented with lactic acid (general remark) (201B7 cells [1]; iPS cells, 7 days)	AFP expression (immunostaining) as compared to cells cultured in ReproFF (AFP [4])	optical microscope observation, FIG. 3A (201B7 cells [1]; 3 mM, 7 days culture)
CC(O)C(=O)[O-].CC(O)C(=O)[O-].[Ca+2] (stereo not drawn) [calcium lactate]	upregulated	survived	≥ 3000	≤ 1000	upregulated				
CC(O)C(=O)O (stereo not drawn) [lactic acid]						collapsing tendency	survived even after 7 days	upregulated	
CC(O)C(=O)[O-].[Na+] (stereo not drawn) [sodium lactate]	upregulated				upregulated	collapsing tendency			precipitates
